Test results taken from patent US20070154540A1 (KMSI CO., LTD., priority 2003, published 2007).

Assays:
IκBα = experiment: Western blotting of IκBα expression in LPS-treated RAW 264.7; type: cell-based, mice; conditions: normal = 100%, LPS (two hours) 18.56%, 10 μM of apigenin
Procedure: (§1) A macrophage cell line derived from mice, RAW 264.7 (KCLB 40071), was purchased from the Korean Cell Line Bank. RAW 264.7 cells were seeded in a density of 3×10^6 cells onto 60-mm culture dishes containing DMEM (Dulbecco's Modified Eagle Medium, 12800-017, Gibco) supplemented with 10% FBS (fetal bovine serum, 26140-079, Gibco), 100 U/ml of penicillin and 100 μg/ml streptomycin (15140-122, Gibco), and cultured at 37° C. under 5% CO2 and humidity for 24 hrs. To induce NO production, RAW 264.7 cells were treated with 500 ng/ml of an E. coli cell wall component, lipopolysaccharide (LPS, […], Sigma). […] Herein, LPS was dissolved in distilled water, and apigenin was dissolved in DMSO. Then, the culture medium and a Griess reagent were mixed at a ratio of 1:1 (100 μl: 100 μl) and allowed to stand at room temperature for 10 min. Thereafter, absorbance was measured at 540 nm using a spectrophotometer (Power Wave X340, Bio-Tek). RAW 264.7 cells were treated under the same conditions as in Example 12. […] Herein, for IκBα expression, the cells were treated with LSP for only two hours. […] After protein concentrations in cell lysates were measured, […] protein samples were separated on an 8-16% SDS (sodium dodecyl sulfate) polyacrylamide gel (EC60452, NOVEX). […]

[1] = test system: osteoarthritis-induced New Zealand white rabbits; experiment: Prostaglandin E2 levels in joint synovial fluids (EIA); type: in vivo
Excerpt: (§2) To prepare an osteoarthritis animal model, New Zealand white rabbits underwent anterior cruciate ligament transection (ACLT) in joints of their two hind legs. After three days, the rabbits were forced to sustain movement for four weeks in a space of 5×5 m^3 to induce substantial osteoarthritis. […] The following Examples 3 to 10 were all performed using joints of the osteoarthritis-induced New Zealand white rabbits prepared as in this Example 2.
Using the joint synovial fluids prepared in Example 3, prostaglandin E2 (PGE2) levels in synovial fluids were measured using an enzyme immunoassay (EIA) kit (DE0100, R&D Systems). 100 μl of a 1:10 dilution of a synovial fluid sample was mixed with 50 μl of a conjugate and 50 μl of an antibody in a plate provided in the kit, and was incubated with agitation at room temperature for two hours. Then, the plate was washed with a washing buffer, and 200 μl of a pNPP solution was added thereto, followed by incubation at room temperature for one hour. Thereafter, absorbance was measured at 405 nm.

iNOS = experiment: Western blotting of iNOS expression in LPS-treated RAW 264.7; type: cell-based, mice; conditions: LPS treatment = 100%, upon apigenin treatment
Procedure: as §1

[2] = test system: osteoarthritis-induced New Zealand white rabbits; experiment: Total protein levels in joint synovial fluids (Bradford); type: in vivo
Excerpt: as §2
As cartilage is destroyed with the progress of osteoarthritis, proteins contained therein are released into synovial fluids. With this respect, total protein levels were measured in synovial fluids. Using the joint synovial fluids prepared in Example 3, total protein levels in synovial fluids were measured using a Bradford method. 50 μl of a synovial fluid was mixed with 200 μl of a protein analysis reagent (500-0006, Bio-Rad) and allowed to stand at room temperature for 5 min, and absorbance was then measured at 595 nm.

[3] = apigenin-treated right leg (+), four weeks after drug injection
[4] = apigenin-treated right leg (+), four weeks after drug injection, listed as Apigenin
[5] = apigenin-treated right leg (+), two weeks after drug injection
[6] = non-treated left leg (−) of apigenin treatment group, four weeks after drug injection
[7] = non-treated left leg (−) of apigenin treatment group, two weeks after drug injection

## O=c1cc(-c2ccc(O)cc2)oc2cc(O)cc(O)c12 [apigenin, 4′,5,7-trihydroxyflavone]
IκBα
  IκBα expression level: 75.82%
[1]; [3]
  PGE2 levels in joint synovial fluids: about 196.71 pg/ml
[1]; [4]
  PGE2 levels in joint synovial fluids: 196.71 ± 0.52 pg/mL
[1]; [5]
  PGE2 levels in joint synovial fluids: 183.26 ± 0.2 pg/mL
[1]; [6]
  PGE2 levels in joint synovial fluids: about 753.2 pg/ml
[1]; non-treated left leg (−) of apigenin treatment group, four weeks after drug injection, listed as Apigenin
  PGE2 levels in joint synovial fluids: 509.2 ± 9.2 pg/mL
[1]; [7]
  PGE2 levels in joint synovial fluids: 543.3 ± 1.13 pg/mL
iNOS
  iNOS expression level: 0%
[2]; [3]
  Total protein levels in joint synovial fluids: about 24.91 mg/ml
[2]; [4]
  Total protein levels in joint synovial fluids: 24.91 ± 0.35 mg/mL
[2]; [5]
  Total protein levels in joint synovial fluids: 16.64 ± 0.3 mg/mL
[2]; [6]
  Total protein levels in joint synovial fluids: 36.37 ± 0. mg/ml
[2]; [7]
  Total protein levels in joint synovial fluids: 20.36 ± 0.69 mg/mL
